Experimental findings from US11319305B2, “Pyrimidine sulfamide derivative and preparation method and medical application thereof” (SHIJIAZHUANG SAGACITY NEW DRUG DEVELOPMENT CO., LTD., priority 2017, dated 2022) are described below.

The nature of data set [1]: Pharmacokinetics in beagle dogs. It is filed as in vivo. From the text:
Experimental embodiment 7: Evaluation on the pharmacokinetic of compounds in beagle dogs
Male beagle dogs were selected as the tested animals in this study, and the drug concentration in plasma of beagle dogs at different time points via intravenous injection or oral perfusion gastric administration of the test compounds was quantitatively measured using LC/MS/MS method to evaluate the pharmacokinetic characteristics of the test compounds in beagle dogs.
Beagle dog (male, 6-15 kg, more than 6 months old, Beijing Marshall Biotechnology Co., Ltd.).
A clear solution of the test compound was injected intravenously into beagle dogs (overnight fasting), or administrated orally to beagle dogs by gavage (overnight fasting). For intravenous administration, 500 μL of blood was collected from peripheral vessels at 0 hour (pre-dosing) and at 0.0833, 0.25, 0.5, 1, 2, 4, 6, 8 and 24 hours after dosing, which was then placed in an anticoagulation tube supplemented with EDTA-K2 (Suzuki Healthcare Medical Co., Ltd.). For oral gastric administration, 500 μL of blood was collected from peripheral vessels at 0 hour (pre-dosing) and at 0.25, 0.5, 1, 2, 4, 6, 8 and 24 hours after dosing, which was then placed in an anticoagulation tube supplemented with EDTA-K2. The mixture in the anticoagulation tube was vortexed to mix thoroughly, and then centrifuged at 13000 rpm for 10 minutes to collect the plasma. Plasma drug concentration was measured by LC/MS/MS method, and related pharmacokinetic parameters were calculated using WinNonlin™ Version 6.3 (Pharsight, Paul View, Calif.) pharmacokinetics software in non-room model linear logarithmic trapezoids method.

The next data set has as its target T1, human ETA receptor (Homo sapiens, UniProt P25101).
T1 construct: endogenously expressed human ETA receptors in SK-N-MC cells; host or cells: SK-N-MC cells
T1 sequence (P25101 21-427): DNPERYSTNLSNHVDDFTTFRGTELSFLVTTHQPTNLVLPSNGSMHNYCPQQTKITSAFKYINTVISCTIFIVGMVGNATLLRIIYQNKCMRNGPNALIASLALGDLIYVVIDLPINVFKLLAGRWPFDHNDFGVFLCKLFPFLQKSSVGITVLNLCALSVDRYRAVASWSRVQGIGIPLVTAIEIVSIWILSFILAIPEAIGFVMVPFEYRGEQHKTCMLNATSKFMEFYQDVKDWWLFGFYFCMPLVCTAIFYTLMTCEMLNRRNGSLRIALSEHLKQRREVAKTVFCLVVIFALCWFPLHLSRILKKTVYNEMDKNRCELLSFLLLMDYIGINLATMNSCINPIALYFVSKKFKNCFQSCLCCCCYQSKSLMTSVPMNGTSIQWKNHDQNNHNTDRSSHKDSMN
The data set is described as follows: In vitro antagonistic effect against human ETA receptor, Ca2+ signal in SK-N-MC cells. It is filed as cell-based. The conditions noted are these: for IC50: SK-N-MC cells, response to 1 nM endothelin-1; for ETA/ETB selectivity: ratio of ETB IC50 to ETA IC50. Here is the method:
Experimental Embodiment 1: In Vitro Test of Antagonistic Effect Against Human ETA Receptor
Antagonistic activity of the compounds against endogenously expressed human ETA receptors in SK-N-MC cells was evaluated by measuring the effect of compounds on the changes in cytoplasmic Ca^2+ ion signal induced by human ETA receptor agonists using fluorescence detection methods. The functional activity of the ETA receptor antagonistic effect was tested in Eurofins-Cerep SA according to current standard procedures.
1. Cells were suspended in Dulbecco's modified Eagle medium solution (DMEM, Invitrogen) supplemented with 1% FCSd, then distributed in 384-well plate (100 μL/well) at a density of 5×10^4 cells/well;
2. Probenecid in Hank's balanced salt solution (HBSS, Invitrogen) supplemented with 20 mM 4-(2-hydroxyethyl)piperazine-1-ethanesulfonic acid (Hepes, Invitrogen) (pH 7.4) was mixed with fluorescent probe (Fluo4 NW, Invitrogen), the mixture was added to each wells, then balanced with cells at 37° C. for 60 minutes, and then balanced with cells at 22° C. for 15 minutes;
3. The test plate was placed in a microplate reader (CellLux, PerkinElmer), a DMSO solution or HBSS buffer with an appropriate concentration of the test compound and the positive control was added, and 1 nM endothelin-1 or HBSS buffer (base control) was added after 5 minutes, and then the change in fluorescence intensity proportional to the concentration of Ca^2+ ions of free […] was measured;
5. Standard positive control was BQ-123, several concentrations were tested in each experiments. The data was analyzed using Prism to generate a concentration-response curve, and IC50 values of the compounds were calculated.

The target in the next data set is T2, human ETB receptor (Homo sapiens, UniProt P24530).
T2 construct: host or cells: CHO cells
T2 sequence (P24530 27-442): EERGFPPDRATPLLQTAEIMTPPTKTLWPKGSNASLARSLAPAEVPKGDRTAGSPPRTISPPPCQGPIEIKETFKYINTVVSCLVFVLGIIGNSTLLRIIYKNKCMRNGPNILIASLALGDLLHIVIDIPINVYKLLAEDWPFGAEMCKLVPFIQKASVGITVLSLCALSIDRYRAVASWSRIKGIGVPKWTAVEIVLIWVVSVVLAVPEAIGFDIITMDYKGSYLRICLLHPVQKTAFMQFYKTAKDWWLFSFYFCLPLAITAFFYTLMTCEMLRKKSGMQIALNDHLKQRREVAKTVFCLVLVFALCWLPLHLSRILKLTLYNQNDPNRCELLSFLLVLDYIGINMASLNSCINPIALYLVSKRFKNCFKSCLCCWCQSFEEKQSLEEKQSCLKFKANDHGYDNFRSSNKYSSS
The data set is described as follows: In vitro antagonistic effect against human ETB receptor, Ca2+ signal in transfected CHO cells. The data set is classed as cell-based. The conditions noted are these: response to 0.3 nM endothelin-1. Here is the method: Antagonist activity of the compound against human ETB receptors expressed in transfected CHO cells was evaluated by measuring the effect of the compound on the changes in the cytoplasmic Ca^2+ ion signal induced by human ETB receptor agonists. The functional activity of the ETB receptor antagonistic effect was tested in Eurofins-Cerep SA according to current standard procedures.
1. Cells were suspended in DMEM buffer (Invitrogen) and then distributed in 384-well plate (100 μL/well) at a density of 3×10^4 cells/well;
2. Probenecid in HBSS buffer (Invitrogen) supplemented with 20 mM Hepes (Invitrogen) (pH 7.4) was mixed with fluorescent probe (Fluo4 NW, Invitrogen), the mixture was added to each wells, then balanced with cells at 37° C. for 60 minutes, and then balanced with cells at 22° C. for 15 minutes;
3. The test plate was placed in a microplate reader (CellLux, PerkinElmer), a DMSO solution or HBSS buffer with an appropriate concentration of the test compound and the positive control was added, and 0.3 nM endothelin-1 or HBSS buffer (base control) was added after 5 minutes, and then the change in fluorescence intensity proportional to the concentration of Ca^2+ ions of […] was measured;
4. Results were shown as the percent inhibition of control response to 0.3 nM endothelin-1;
5. Standard positive control was BQ-788, several concentrations were tested in each experiments. The data was analyzed using Prism to generate a concentration-response curve, and IC50 values of the compounds were calculated.

Where [2] appears, read: male, dog, plasma, intravenous injection 1 mg/kg.

For orientation: clearance means a measure of how efficiently the substance is removed, as volume per time. As usually defined, the half-life is the time in which the quantity being followed falls by half. A higher half-life goes with slow loss. One may read the IC50 as the concentration needed to halve the response being measured. As for `COCCNS(=O)(=O)Nc1ncnc(OCCOc2ncc(Br)cn2)c1-c1ccc2c(c1)OCO2` [WX013], the “The area under the plasma concentration time curve” value (shortened to “The area”) in data set [1] (intravenous injection 1 mg/kg) was 7.56 µM·h. Besides, in data set [1] (intravenous injection 1 mg/kg, 1 mg/kg), the Plasma clearance rate is 4.79 mL/min/kg. The clearance in data set [1] (male, beagle, dog, plasma, iv, 1 mg/kg, intravenous injection 1 mg/kg, read-out: Plasma clearance rate) was below 5 mL/min/kg. In data set [1] (setting [2]), this molecule showed a half-life of 0.86 h. For the same molecule, in data set [1] (oral administration 3 mg/kg), the Peak concentration turned out to be 12.75 µM, the Peak time is recorded as 0.38 h and the “The area” value stood at 33.40 µM·h. Moreover, on human ETA receptor, the IC50 amounted to 0.0014 µM and the ETA/ETB selectivity was determined as 47100. In addition, the IC50 against human ETB receptor is 66 µM.
For orientation: bioavailability means the share of a dose that reaches the circulation, judged against a reference dose that is usually intravenous. As to `NS(=O)(=O)Nc1ncnc(OCCOc2ncc(Br)cn2)c1-c1ccc2c(c1)OCO2` [WX001], in data set [1] (intravenous injection 1 mg/kg), the “The area” value was determined as 46.94 µM·h. The bioavailability in data set [1] (male, beagle, dog, plasma, po, 3 mg/kg, oral administration 3 mg/kg, read-out: Bioavailability F) is above 50%. Further, the half-life in data set [1] (setting [2]) was 2.31 h. In data set [1] (oral administration 3 mg/kg), the Peak concentration came to 16.20 µM, the Peak time is 0.38 h and the “The area” value stood at 73.77 µM·h. For the same molecule, the “Bioavailability F” value in data set [1] (oral administration 3 mg/kg, 3 mg/kg) is on record as 52.4%. In addition, at human ETA receptor, the IC50 turned out to be 0.0028 µM and the ETA/ETB selectivity is 30300. This molecule also came in with an IC50 at human ETB receptor of 85 µM.
